Legend:
Assay in all cases: Protein kinase inhibition assay
Assay type in all cases: biochemical
EphB2(h) = EphB2(h) (Homo sapiens, UniProt P29323); settings: read-out: percent residual activity of EphB2(h)
Procedure: (§1) Certain compounds were tested for activity in protein kinase inhibition assays. All substrates were dissolved and diluted to working stocks in de-ionized water, apart from histone H1 (10× working stock in 20 mM MOPS pH 7.0), PDKtide (10× working stock in 50 mM Tris pH 7.0) ATF2 (which is typically stored at a 20× working stock in 50 mM Tris pH 7.5, 150 mM NaCl, 0.1 mM EGTA, 0.03% Brij-35, 50% glycerol, 1 mM benzamidine, 0.2 mM PMSF and 0.1% R-mercaptoethanol), KKLNRTLSFAEPG (SEQ ID NO:203) and RRRLSFAEPG (SEQ ID NO:204) (50 mM HEPES pH 7.4) and GGEEEEYFELVKKKK (SEQ ID NO:205) (20 mM MOPS pH 7.0). All kinases were pre-diluted to a 10× working concentration prior to addition into the assay. The composition of the dilution buffer for each kinase is detailed below.
(§2) In a final reaction volume of 25 μl, EphB2 (h) (5-10 mU) is incubated with 8 mM MOPS pH 7.0, 0.2 mM EDTA, 10 mM MnCl2, 0.1 mg/ml poly(Glu, Tyr) 4:1, 10 mM MgAcetate and [gamma-33P-ATP] (specific activity approx. 500 cpm/pmol, concentration as required). The reaction is initiated by the addition of the MgATP mix. After incubation for 40 minutes at room temperature, the reaction is stopped by the addition of 5 μl of a 3% phosphoric acid solution. 10 μl of the reaction is then spotted onto a Filtermat A and washed three times for 5 minutes in 75 mM phosphoric acid and once in methanol prior to drying and scintillation counting.

Fms(h) = Fms(h) (Homo sapiens, UniProt P07333); settings: read-out: percent residual activity of Fms(h)
Procedure: as §1
as §2, with “Fms” for “EphB2”, “250 μM KKKSPGEYVNIEFG (SEQ ID NO:207),” for “10 mM MnCl2, 0.1 mg/ml poly(Glu, Tyr) 4:1,”, “[y-33P-ATP]” for “[gamma-33P-ATP]”, “P30 filtermat” for “Filtermat A”

HIPK2(h) = HIPK2(h) (Homo sapiens, UniProt Q9H2X6); settings: read-out: percent residual activity of HIPK2(h)
Procedure: as §1
as §2, with “HIPK2” for “EphB2”, “0.33” for “10 mM MnCl2, 0.1”, “myelin basic protein,” for “poly(Glu, Tyr) 4:1,”, “P30 filtermat” for “Filtermat A and”

Lyn(m) = Lyn(m) (Mus musculus, UniProt P25911); settings: read-out: percent residual activity of Lyn(m)
Procedure: as §1
In a final reaction volume of 25 μl, Lyn (m) (5-10 mU) is incubated with 50 mM Tris pH 7.5, 0.1 mM EGTA, 0.1 mM Na3VO4, 0.1% R-mercaptoethanol, 0.1 mg/ml poly(Glu, Tyr) 4:1, 10 mM MgAcetate and [gamma-33P-ATP] (specific activity approx. 500 cpm/pmol, concentration as required). The reaction is initiated by the addition of the MgATP mix. After incubation for 40 minutes at room temperature, the reaction is stopped by the addition of 5 μl of a 3% phosphoric acid solution. […]

PAK2(h) = PAK2(h) (Homo sapiens, UniProt Q13177); settings: read-out: percent residual activity of PAK2(h)
Procedure: as §1
as §2, with “PAK2” for “EphB2”, “30 μM […] (SEQ ID NO:222),” for “10 mM MnCl2, 0.1 mg/ml poly(Glu, Tyr) 4:1,”, “P30 filtermat” for “Filtermat A”

PKBα(h) = PKBα(h) (Homo sapiens, UniProt P31749); settings: read-out: percent residual activity of PKBα(h)
Procedure: as §1
as §2, with “PKBα” for “EphB2”, “30 μM GRPRTSSFAEGKK (SEQ ID NO:232),” for “10 mM MnCl2, 0.1 mg/ml poly(Glu, Tyr) 4:1,”, “P30 filtermat” for “Filtermat A”

HIPK2(h), sequence (Q9H2X6 whole entry): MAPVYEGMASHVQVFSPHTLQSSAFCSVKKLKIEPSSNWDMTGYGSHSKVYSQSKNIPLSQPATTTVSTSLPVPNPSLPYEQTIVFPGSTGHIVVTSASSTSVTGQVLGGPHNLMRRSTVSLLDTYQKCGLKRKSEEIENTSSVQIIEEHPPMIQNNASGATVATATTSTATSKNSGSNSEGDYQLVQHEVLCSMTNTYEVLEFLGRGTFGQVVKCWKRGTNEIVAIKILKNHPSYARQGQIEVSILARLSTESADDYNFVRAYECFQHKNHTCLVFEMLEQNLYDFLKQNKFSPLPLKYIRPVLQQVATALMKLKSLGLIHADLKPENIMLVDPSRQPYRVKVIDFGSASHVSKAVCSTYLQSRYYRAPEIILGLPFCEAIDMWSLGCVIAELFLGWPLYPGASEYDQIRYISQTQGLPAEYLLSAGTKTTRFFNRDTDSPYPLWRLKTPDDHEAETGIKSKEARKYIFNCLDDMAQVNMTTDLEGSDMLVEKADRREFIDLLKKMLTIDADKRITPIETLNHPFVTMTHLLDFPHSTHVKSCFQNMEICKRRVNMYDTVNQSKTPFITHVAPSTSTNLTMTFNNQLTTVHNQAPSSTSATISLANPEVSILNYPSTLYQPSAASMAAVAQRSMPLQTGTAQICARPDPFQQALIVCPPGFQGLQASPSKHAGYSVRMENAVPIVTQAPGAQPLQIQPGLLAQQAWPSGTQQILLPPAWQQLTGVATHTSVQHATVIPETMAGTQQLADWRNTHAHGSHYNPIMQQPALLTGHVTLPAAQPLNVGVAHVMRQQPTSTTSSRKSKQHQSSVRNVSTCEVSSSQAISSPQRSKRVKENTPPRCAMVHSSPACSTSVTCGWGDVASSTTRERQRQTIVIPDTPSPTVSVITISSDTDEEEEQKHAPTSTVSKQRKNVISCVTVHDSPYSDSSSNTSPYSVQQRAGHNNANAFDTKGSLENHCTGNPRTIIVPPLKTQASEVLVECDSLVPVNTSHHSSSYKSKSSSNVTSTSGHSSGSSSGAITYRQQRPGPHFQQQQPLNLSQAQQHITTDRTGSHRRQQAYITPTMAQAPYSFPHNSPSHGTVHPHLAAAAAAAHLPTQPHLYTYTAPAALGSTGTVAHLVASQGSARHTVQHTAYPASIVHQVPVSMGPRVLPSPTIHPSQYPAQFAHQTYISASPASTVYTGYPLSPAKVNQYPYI
PKBα(h), sequence (P31749 whole entry): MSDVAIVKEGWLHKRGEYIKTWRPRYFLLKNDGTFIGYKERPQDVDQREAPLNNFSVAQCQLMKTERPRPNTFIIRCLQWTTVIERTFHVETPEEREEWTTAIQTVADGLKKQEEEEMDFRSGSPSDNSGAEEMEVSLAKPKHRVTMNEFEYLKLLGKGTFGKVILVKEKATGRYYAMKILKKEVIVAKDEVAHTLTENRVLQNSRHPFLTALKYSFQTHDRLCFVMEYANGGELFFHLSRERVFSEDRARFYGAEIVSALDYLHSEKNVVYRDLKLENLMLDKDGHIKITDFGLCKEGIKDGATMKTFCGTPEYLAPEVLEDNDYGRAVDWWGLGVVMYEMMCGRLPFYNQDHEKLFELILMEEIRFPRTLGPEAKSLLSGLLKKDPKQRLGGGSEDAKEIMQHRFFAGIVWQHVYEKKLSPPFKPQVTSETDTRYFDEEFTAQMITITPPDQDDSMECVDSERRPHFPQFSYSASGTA
EphB2(h), sequence (P29323 19-1055): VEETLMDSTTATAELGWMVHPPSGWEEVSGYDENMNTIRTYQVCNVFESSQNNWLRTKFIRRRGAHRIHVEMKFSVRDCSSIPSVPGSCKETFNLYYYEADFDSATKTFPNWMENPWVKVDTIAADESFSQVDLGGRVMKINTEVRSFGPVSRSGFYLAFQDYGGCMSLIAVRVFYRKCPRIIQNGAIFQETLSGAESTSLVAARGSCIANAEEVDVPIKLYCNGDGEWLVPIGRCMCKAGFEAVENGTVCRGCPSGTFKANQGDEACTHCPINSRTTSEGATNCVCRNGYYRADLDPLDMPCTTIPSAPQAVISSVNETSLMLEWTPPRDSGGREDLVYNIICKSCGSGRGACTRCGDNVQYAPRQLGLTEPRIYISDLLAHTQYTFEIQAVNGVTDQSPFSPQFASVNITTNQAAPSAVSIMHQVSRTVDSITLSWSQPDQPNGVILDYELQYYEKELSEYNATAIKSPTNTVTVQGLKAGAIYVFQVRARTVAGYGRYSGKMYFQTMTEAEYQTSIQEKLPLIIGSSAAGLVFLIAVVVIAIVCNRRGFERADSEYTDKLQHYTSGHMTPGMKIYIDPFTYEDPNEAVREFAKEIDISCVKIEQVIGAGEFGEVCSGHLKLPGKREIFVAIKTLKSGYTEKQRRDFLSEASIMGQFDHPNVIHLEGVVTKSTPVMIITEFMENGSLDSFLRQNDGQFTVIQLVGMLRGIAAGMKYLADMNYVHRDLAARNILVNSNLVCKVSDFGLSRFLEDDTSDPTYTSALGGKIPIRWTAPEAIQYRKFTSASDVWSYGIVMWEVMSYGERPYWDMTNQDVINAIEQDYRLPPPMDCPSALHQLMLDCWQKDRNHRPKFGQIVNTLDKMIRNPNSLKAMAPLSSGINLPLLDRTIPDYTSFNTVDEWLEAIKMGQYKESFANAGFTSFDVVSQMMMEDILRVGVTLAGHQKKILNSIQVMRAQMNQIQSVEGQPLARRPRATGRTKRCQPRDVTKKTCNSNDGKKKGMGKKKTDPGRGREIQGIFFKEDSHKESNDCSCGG
PAK2(h), sequence (Q13177 whole entry): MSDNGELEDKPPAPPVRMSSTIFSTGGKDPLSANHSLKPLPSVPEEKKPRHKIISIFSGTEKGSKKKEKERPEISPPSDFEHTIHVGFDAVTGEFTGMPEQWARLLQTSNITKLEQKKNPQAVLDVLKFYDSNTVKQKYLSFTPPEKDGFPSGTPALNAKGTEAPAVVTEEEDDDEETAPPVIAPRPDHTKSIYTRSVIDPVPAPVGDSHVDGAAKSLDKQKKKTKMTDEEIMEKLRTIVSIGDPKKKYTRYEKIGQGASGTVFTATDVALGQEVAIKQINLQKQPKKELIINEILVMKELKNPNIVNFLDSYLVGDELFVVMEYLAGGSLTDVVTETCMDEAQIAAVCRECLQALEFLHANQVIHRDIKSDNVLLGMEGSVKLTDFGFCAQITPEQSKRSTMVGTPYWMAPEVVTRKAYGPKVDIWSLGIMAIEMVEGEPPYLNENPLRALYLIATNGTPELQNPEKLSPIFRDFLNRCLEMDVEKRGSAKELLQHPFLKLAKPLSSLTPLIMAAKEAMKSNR
Fms(h), sequence (P07333 20-972): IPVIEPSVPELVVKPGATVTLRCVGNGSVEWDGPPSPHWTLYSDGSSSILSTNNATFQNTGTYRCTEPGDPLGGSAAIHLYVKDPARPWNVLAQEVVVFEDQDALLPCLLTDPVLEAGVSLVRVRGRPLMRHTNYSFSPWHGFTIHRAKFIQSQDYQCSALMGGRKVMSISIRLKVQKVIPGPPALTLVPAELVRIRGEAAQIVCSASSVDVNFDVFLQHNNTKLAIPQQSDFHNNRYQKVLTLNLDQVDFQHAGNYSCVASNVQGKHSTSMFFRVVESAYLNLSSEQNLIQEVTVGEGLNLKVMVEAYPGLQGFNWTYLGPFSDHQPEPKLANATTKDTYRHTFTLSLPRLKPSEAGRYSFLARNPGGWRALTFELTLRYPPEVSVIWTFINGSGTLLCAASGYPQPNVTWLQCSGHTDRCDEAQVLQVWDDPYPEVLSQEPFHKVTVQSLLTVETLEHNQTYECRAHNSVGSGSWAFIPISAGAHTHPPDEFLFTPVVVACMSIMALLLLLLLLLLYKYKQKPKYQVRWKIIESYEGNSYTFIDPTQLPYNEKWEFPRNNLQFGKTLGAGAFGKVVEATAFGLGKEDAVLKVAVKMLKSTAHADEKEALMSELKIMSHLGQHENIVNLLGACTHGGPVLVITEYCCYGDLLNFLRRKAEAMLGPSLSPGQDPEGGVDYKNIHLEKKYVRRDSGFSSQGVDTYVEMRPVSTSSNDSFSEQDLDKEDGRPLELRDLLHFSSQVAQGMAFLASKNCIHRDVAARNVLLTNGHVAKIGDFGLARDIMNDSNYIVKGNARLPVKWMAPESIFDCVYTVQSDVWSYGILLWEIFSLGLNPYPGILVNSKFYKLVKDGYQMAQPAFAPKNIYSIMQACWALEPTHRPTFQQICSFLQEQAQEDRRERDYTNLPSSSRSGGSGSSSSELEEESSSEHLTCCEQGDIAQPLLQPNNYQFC
Lyn(m), sequence (P25911 whole entry): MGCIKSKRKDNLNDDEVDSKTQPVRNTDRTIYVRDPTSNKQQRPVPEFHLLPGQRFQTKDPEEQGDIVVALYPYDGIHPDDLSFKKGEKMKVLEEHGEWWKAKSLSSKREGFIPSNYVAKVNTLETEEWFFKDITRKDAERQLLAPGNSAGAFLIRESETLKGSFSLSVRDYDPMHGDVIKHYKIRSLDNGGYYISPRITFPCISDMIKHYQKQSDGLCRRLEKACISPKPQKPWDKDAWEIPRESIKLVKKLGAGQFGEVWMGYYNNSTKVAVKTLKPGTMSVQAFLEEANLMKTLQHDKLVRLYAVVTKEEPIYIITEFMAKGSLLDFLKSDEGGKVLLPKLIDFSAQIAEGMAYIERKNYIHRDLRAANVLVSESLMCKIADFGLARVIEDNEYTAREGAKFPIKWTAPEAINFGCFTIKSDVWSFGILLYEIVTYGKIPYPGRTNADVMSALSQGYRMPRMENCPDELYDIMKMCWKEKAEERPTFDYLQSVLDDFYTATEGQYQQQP

SMILES	remaining activity at 2.5 µM (EphB2(h)) [%]	remaining activity at 2.5 µM (Fms(h)) [%]	remaining activity at 2.5 µM (HIPK2(h)) [%]	remaining activity at 2.5 µM (Lyn(m)) [%]	remaining activity at 2.5 µM (PAK2(h)) [%]	remaining activity at 2.5 µM (PKBα(h)) [%]
CN1CCCC1CCNC(=O)c1cn2c3c(c(N4CCC(c5cnccn5)C4)c(F)cc3c1=O)Oc1cc3ccccc3cc1-2 (stereo not drawn) [Compound A-1]	96	131	106	89	73	91
CC(=O)N1CCN(c2ccc3c(=O)c(C(=O)NCCN4CCCC4)c4n(C)c5ccccc5n4c3n2)CC1 [Compound B-1]	106	107	111	106	95	103

Source: patent US20070117770A1, “Human ribosomal DNA (rDNA) and ribosomal RNA (rRNA) nucleic acids and uses thereof” (Cylene Pharmaceuticals, Inc., priority 2005, published 2007)
